From patent publication US7989188B2, “Conjugates for cancer therapy and diagnosis” (BioSight Ltd., priority 2004, dated 2011)

How the values were obtained:
[1] = system: MX-1 human mammary duct carcinoma; assay: Anti-tumor activity, MX-1 xenograft murine model, intravenous treatment; assay type: in vivo, BALB/c nude mice; details: for increase in tumor volume at the end of the study period: injected Days 10, 14 and 18, Asp(5-FU) 50 and 100 mg/kg, 5-FU 26 mg/kg, saline 170%
Protocol: The potential anti-tumor activity of Asp(5-FU) was assessed based on the relative growth inhibition of human mammary duct carcinoma, MX-1 murine model.
Propagation of Tumor Material (MX-1 fragments): The Mammary Xenograft-1 (MX-1) is a human derived mammary duct carcinoma, supplied by the National Cancer Institute (NCI). The tissue was kept frozen until the time of implantation. The fragments (one to each animal in the study) were prepared according to the NCI recommended transplantation protocol.
Each vial containing 5 to 6 fragments was rapidly thawed (60-90 seconds) in a water bath at 37-40° C. The frozen fragments were implanted immediately after thawing.
Two fragments were implanted close to each other at the same sub-axillary incision site of each animal assigned to the propagation phase. The mass doubling time of the MX-1 tumor during the logarithmic phase was 4-5 days post implantation. Subsequently, another 2 fragments were implanted into each of 6 animals to achieve at least a total of 20 implanted fragments.
At the end of the logarithmic phase, the donor animals were sacrificed, the tumors were excised, dissected and transferred to a sterile Petri dish placed over ice and cut into approximately 20 fragments (about 2×2×2 mm each) for their transplantation into 10 naïve mice. A total of 42 tumor fragments were transplanted at the end of the second propagation phase. No more than 30 minutes elapsed from the time the tumor was removed from the donor animals until transplantation.
Tumor Induction and Monitoring (Pre-Treatment): Upon completion of the propagation phase, tumor fragments measuring about 2×2×2 mm each, were implanted subcutaneously (SC) into the right flank of each test animal assigned to the main study. Tumor growth was monitored twice weekly and the total SC mass (mm^3) determined on the basis of width and length measurement using micrometer calipers. […]
Tumor volume changes were determined using the following equation: V (mm^3)=d^2 (mm^2)×D (mm)/2 wherein d and D represent the smallest and the largest perpendicular tumor diameters respectively. […]
Body Weight: Individual body weights were determined prior to MX-1 fragment transplantation and thereafter once weekly until initiation of treatment. Following initiation of treatment individual body weights were determined twice weekly until the scheduled study termination or in case of removal of animals from the study due to animal welfare reasons, at the time of death.
Necropsy Procedures and Macroscopic Examination: Necropsy was performed on all animals including those removed from the study for animal welfare reasons and all surviving 10 days after the last dosing session (Groups 1, 2 & 3), following euthanasia. […] All gross pathological changes were recorded. […]

mice [2] = details: NIH report; cited from earlier work
[3] = In-vitro toxicity profile, MTT cell viability; assay type: cell-based; details: human, HUVEC (human umbilical vein endothelial cells, normal), healthy cells (HUVEC), at the concentration of 5-FU that resulted in 90% mortality (IC90), FIG. 2
Protocol: (§1) Materials and Methods: Human umbilical vein endothelial cells (HUVEC, normal) cells were grown in M199 medium supplemented with 20% fetal calf serum (FCS), vitamins, 1 ng/ml hbFGF, and antibiotics at […], 5% CO2. Human melanoma cells (WW-94, cancer) cells were grown in 50% DMEM/50% F-12 medium supplemented with 10% fetal calf serum and antibiotics.
(§2) The cells were seeded in a 96-well ELISA dish at a concentration of 10,000-20,000 cells/well. The conjugates were added at concentrations that cause IC50 (50% lethality, FIG. 1), or IC90 (90% lethality, FIG. 2) by 5-FU. The cells were incubated for 72 hours at 37° C. and 5% CO2. After 72 hours the medium was aspirated, and DMEM containing 5% FCS and 0.5 mg/ml MTT (3-(4,5-Dimethyl-2-thiazolyl)-2,5-diphenyl-2H-tetrazolium bromide, an indicator of cell viability) was added. The cells were incubated for 2-4 hours at 37° C. and 5% CO2, washed with phosphate buffer saline (PBS) and dissolved in dimethylsulfoxide (DMSO). The results were analyzed using Techan ELISA reader equipped with a 570 nm filter. The results are represented as % of cell mortality.

[4] = system: Human umbilical vein endothelial cells (HUVEC, normal); assay: In-vitro toxicity profile, MTT cell viability; assay type: cell-based; details: normal cells (HUVEC), 72 hours, at the concentration of 5-FU that causes 50% mortality (IC50), FIG. 1
Protocol: as §1, §2

[5] = Acute intravenous (IV) toxicity, single injection, MTD and LD50; details: female, BALB/c, mouse, in vivo, iv
Protocol: (§3) Purpose: To measure the potential acute intravenous (IV) toxicity of Asp(5-FU) in mice, estimated by Maximum Tolerated Dose (MTD) and 50% Lethal Dose (LD50).
(§4) Method: The potential acute intravenous (IV) toxicity of the Asp(5-FU) was assessed in groups of BALB/c female mice of 5 mice per group, in order to establish appropriate MTD levels towards a projected series of various anti-tumorigenic efficacy trials.
(§5) Asp(5-FU) was administered as single IV injections at three dose levels of 80, 150 and 200 mg/kg. One group was administered with saline served as control. In all instances, freshly prepared solutions were injected at a constant volume of 10 ml/kg.

BALB/c female mice = assay: as above
Protocol: as §3, §4, §5

[6] = Acute toxicity (MTD), single administration by oral gavage; details: mouse, in vivo, po
Protocol: (§6) OBJECTIVE: To determine the Maximum Tolerated Dose (MTD) of the test product, Asp(5-FU), following a single administration by oral gavage (PO) to mice.
(§7) This experiment was performed essentially according to Example 22 supra, with the exception that the test agent and the controls were administered orally, by oral gavage. Asp(5-FU) was suspended in corn oil and administered by single oral gavage (PO), at 2 dose levels of 200 and 400 mg/kg, to 2 test groups. An additional equally sized group was administered the vehicle (corn oil) and served as control. In all instances the volume dosage was 10 ml/kg.

mice [7] = assay: as above; details: single PO 200 and 400 mg/kg
Protocol: as §6, §7

[8] = system: human mammary duct carcinoma xenograft MX-1; assay: Anti-tumor activity, MX-1 xenograft murine model, oral gavage; assay type: in vivo, mice; details: PO gavage 200 mg/kg, seven administrations at 3-days inter-dosing intervals
Protocol: The compounds were administered to mice following about 3-6 hours food deprivation prior to dosing, using a suitable stainless steel feeding needle. Following dosing, food was withheld for further 1-2 hours.
Dose and Volume Dosage: 50 mg/kg reference item and 200 mg/kg of Asp(5-FU). In all instances, volume dosage was 10 ml/kg.
Frequency and Duration: Treatment with Control, Test or Reference Items was carried out as 1× daily injection at 3-days inter-dosing intervals×7 (days 1-25).

Structure (SMILES) | increase in tumor volume at the end of the study period [1] [%] | LD50 (mice [2]) [mg/kg] | MTD (mice [2]) [mg/kg] | mortality at 72 h [3] [%] | % of cell mortality [4] | LD50 [5] [mg/kg] | MTD [5] [mg/kg] | less toxic than 5-FU (BALB/c female mice; female, BALB/c, mouse, in vivo) [%] | gross pathological findings at scheduled necropsy (BALB/c female mice; single IV 80, 150 and 200 mg/kg) | Incidence of mortality (BALB/c female mice; single IV injection, high-dose group 200 mg/kg, immediate post-dosing period) | clinical signs (BALB/c female mice; single IV, high-dose 200 mg/kg, survivors or decedents respectively) | clinical signs (BALB/c female mice; single IV, intermediate- and low-dose 150 & 80 mg/kg) | Mean group body weight (BALB/c female mice; single IV, intermediate-dose group, Day 8, p<0.01, full recovery Day 8-15) | tumor progression compared to controls ([1]; Asp(5-FU) 50 and 100 mg/kg, tumor volume, FIG. 5) | tumor weight upon necropsy compared to 5-FU and saline control ([1]; end of treatment period, FIG. 6) | MTD at 14 days [6] [mg/kg] | gross pathological findings at scheduled necropsy (mice [7]) | clinical signs in reaction to dosing (mice [7]; 14-day observation period) | progressive tumor development compared to corn oil controls [8]
O=c1[nH]cc(F)c(=O)[nH]1 [Compound 5-FU, 2,4-dioxo-5-fluoropyrimidine] | 185 | 81 | 24 to 26 | – | – | – | – | – | – | – | – | – | – | – | – | – | – | – | –
NC(CC(=O)n1cc(F)c(=O)[nH]c1=O)C(=O)O [Asp(5-FU), L-aspartic acid-beta-1N-(2,4-dioxo-5-fluoropyrimidine)] | 104 | – | – | 20 | did not kill normal cells | 200 | 160 | 600 | No gross pathological findings | 3/5 | brief decreased motor activity or lateral recumbency | No obvious clinical signs | transient reduced body weight | significant reduction in tumor progression | significant decrease | > 400 | No gross pathological findings | No noticeable clinical signs | relative decrease in progressive tumor development
